Results reported in patent US7745493B2, “Methods of treating tardive dyskinesia and other movement disorders” (priority 1998, dated 2010).

Legend:
[1] = tested on: person two with long-standing TD; assay: Case Report 1: clinical observation of TD with blepharospasm; assay type: in vivo, human; conditions: Case 1; for effect on involuntary movements of TD: clinical observation, acamprosate 333 mg four times a day
Description: Palliative treatment with alprazolam (an anxiolytic and GABA agonist via modulation; dosage 0.25 mg four times a day) and trihexyphenidyl (an anticholinergic antiparkinson drug that inhibits dopamine re-uptake at synapses; dosage 2 mg twice a day) was prescribed by another physician.
Initially, their other medications were maintained unchanged.
Nimodipine was discontinued, and the patient was begun on memantine at a dosage of 10 mg twice a day.
For the following 10 days they added 250 mg three times a day of chelated magnesium.

[2] = tested on: patients with Meige syndrome; conditions: cited from earlier work
[3] = tested on: person one with long-standing TD; assay: Case Report 2: clinical observation of TD; assay type: in vivo, human; conditions: Case 2; acamprosate 666 mg three times daily added to memantine; magnesium oxide 250 mg three times a day added to acamprosate
Description: person one had long-standing TD following decades of treatment with the neuroleptic drug perphenazine. Their involuntary movements comprised bilateral chorea of the upper extremities, plus writhing of the tongue and tongue-biting. Both of the latter movements led to a very sore tongue. In addition, the patient experienced impairment of their short-term memory, which was attributed primarily to cerebrovascular disease.
They also continued to have a sore tongue. […] In addition to memantine, the patient regularly took antiepileptic drugs (gabapentin and lamotrigine), antiplatelet agents (aspirin and ticlopidine), as well as medications for hypertension, glaucoma and gastrointestinal symptoms (isosorbide mononitrate, metoprolol, timolol eye drops and olsalazine).
The patient was placed on a treatment regime that included administration of 666 mg of acamprosate, three times daily. In this case, acamprosate was added to the patient's regimen, which continued to include memantine. […] Despite past evidence from formal testing that the patient had impaired short-term memory, they performed normally on a two-sentence memory task, which involved testing the patient's recall ability using two sentences containing 13 separate details. On the two-sentence memory task, within three attempts the patient was able to recall 9 details and, using a multiple choice format, was able to recall a total of 11 details. Recall of 9 details on the third attempt would be normal for a middle-aged adult, let alone one […].
After a full year on memantine and acamprosate, the memantine was discontinued, with little change in the patient's symptoms.
Magnesium oxide, 250 mg three times a day, was added, each dose being taken together with the acamprosate. […] The effect was definite: movements worsened when magnesium oxide was stopped and improved when it was restarted. After a month on magnesium, the dosage of acamprosate was increased to 666 mg four times a day, with 250 mg of magnesium oxide given together with each dose. […] The only residual sign of TD was a mild degree of involuntary movement of the hands.

[4] = tested on: person two with Parkinson's disease and peak-dose dyskinesia; assay: Case Report 3: peak-dose dyskinesia of treated Parkinson's disease; assay type: in vivo, human; conditions: Case 3; for effect on peak-dose dyskinesia: added to antiparkinson regime, memantine 10 mg three times a day, acamprosate 666 mg three times, then 333 mg four times a day, baclofen 30 and 60 mg daily, magnesium 300 mg three times a day
Description: The patient's Parkinson's disease was treated using levodopa/carbidopa and bromocriptine.
Prior to beginning treatment with acamprosate, the patient was on an antiparkinson treatment regime that consisted of 1 mg of pergolide three times a day, 5 mg of selegiline twice a day, and a combination of levodopa/carbidopa consisting of 550-600 mg of levodopa and 125-150 mg of carbidopa administered in divided doses.
The patient began acamprosate as an addition to the antiparkinson regime described above. Initially, the patient received 666 mg of acamprosate administered three times a day. Two weeks later the regime was adjusted such that the patient received 333 mg of acamprosate four times a day, taking one 333 mg pill with each daytime dose of 100 mg levodopa and 25 mg carbidopa. The patient's bedtime does of controlled-release levodopa-carbidopa (200 mg of levodopa and 50 mg of carbidopa) was continued, but were given without acamprosate. […] To confirm that the patient's improvement was due to the administration of acamprosate, the patient was taken off the acamprosate. […] During the period off acamprosate, an attempt was made to replace acamprosate with baclofen (a GABA-receptor agonist) at a total daily dose of 30 mg, and then with baclofen at a total daily dose of 60 mg.
Several months later, magnesium (300 mg elemental magnesium, as a mixed chelate), was added to the regimen. It was taken three times a day, together with a one of the patient's regular doses of levodopa/carbidopa. […] To establish whether the improvement was due to magnesium, the magnesium was stopped after several weeks.

[5] = tested on: patients with tic-related symptoms; conditions: in vivo; cited from earlier work

Compound	effect on involuntary movements of TD ([1]; memantine 10 mg twice a day)	effect on peak-dose dyskinesia [4]	further results
vitamin E	either produced little benefit or were not tolerated		
COc1cc2c(cc1OC)C1CC(=O)C(CC(C)C)CN1CC2 (stereo not shown) [Tetrabenazine]			patients with involuntary movements alleviated [2]: 4 of 6; undesirable side effects [2]: drowsiness, drooling and Parkinsonism
O=C1CC2(CCCC2)CC(=O)N1CCCCN1CCN(c2ncccn2)CC1 [buspirone]	either produced little benefit or were not tolerated		
COCCOC(=O)C1=C(C)NC(C)=C(C(=O)OC(C)C)C1c1cccc([N+](=O)[O-])c1 (stereo not shown) [nimodipine]			reduction of involuntary movements ([1]; 30 mg four times a day): about 50%; time able to read text or music at a time ([1]; 30 mg four times a day): no more than 30 minutes; adverse effects ([1]; nimodipine 30 mg four times a day, memantine 10 mg twice a day): dizziness, lightheadedness, and palpitations
[O]=[Mg] [Magnesium oxide]			effect on involuntary movements of TD [3]: improved further
OC(CCN1CCCCC1)(c1ccccc1)C1CCCCC1 (stereo not shown) [Trihexyphenidyl, trihexyphenidyl]	discontinued without a change in their involuntary movements		
NC(=O)N1c2ccccc2C=Cc2ccccc21 [carbamazepine]		did not appear to affect	
CC(C[N+](C)(C)C)OC(N)=O (stereo not shown) [bethanecol]		did not appear to affect	
NCC(CC(=O)O)c1ccc(Cl)cc1 (stereo not shown) [baclofen]		no beneficial effect	adverse effects ([4]; total daily dose 30 mg, then 60 mg): sedation and nausea
Cc1nnc2n1-c1ccc(Cl)cc1C(c1ccccc1)=NC2 [alprazolam]	no detectable effect		
medroxyprogesterone		did not appear to affect	
Clc1cccc(Cl)c1N=C1NCCN1 [clonidine]			patients showing clinically significant improvement of tic-related symptoms [5]: < 50%; side effects that limit use [5]: hypotension or sedation
CN[C@H]1CC[C@@H](c2ccc(Cl)c(Cl)c2)c2ccccc21 [sertraline]	either produced little benefit or were not tolerated	did not appear to affect	
